Like-named read-outs stand apart in the source and are kept apart here.
Legend:
Type in all cases: cell-based
[1] = system: S. aureus ATCC 33591 (methicillin-resistant); assay: broth microdilution MIC assay, S. aureus ATCC 33591; conditions: Staphylococcus aureus
Procedure, shortened: (§1)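 Growth inhibition was scored by eye after 16-20 h at 37 °C in Mueller-Hinton broth. Each well received 5×10^5 CFU/mL of log-phase culture plus compound from a 2-fold dilution series.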

[2] = system: S. aureus ATCC 29213 (methicillin sensitive); assay: broth microdilution MIC assay, S. aureus ATCC 29213; conditions: Staphylococcus aureus, ATCC 29213 / MSSA; Table 3; S. aureus 29213 (MSSA); read-out: S. aureus 29213 (MSSA) MIC
Procedure: (§2) To determine the ability of test compounds to potentiate the inhibition of the growth of bacterial strains, classic cell-based broth microdilution MIC assays were employed. MIC assays are performed according to CLSI methods except where otherwise noted (CLSI, 2011 and CLSI, 2009). The reference strains S. aureus ATCC 29213 (methicillin sensitive), S. aureus ATCC 33591 (methicillin-resistant), E. coli ATCC 25922 (wild-type/QC strain), P. aeruginosa ATCC 27853 (wild-type/QC strain), and the clinical isolate P. aeruginosa PA 8 were used to determine the ability of the exemplary carbapenem compounds to inhibit bacterial growth. An expanded panel of methicillin resistance S. aureus (MRSA) and Pseudomonas was also used to determine the ability of exemplary carbapenem compounds to inhibit bacterial growth across a broader representation of those species. To determine activity in MRSA and in addition to S. aureus ATCC 33591, S. aureus USA 300, USA 400 and USA 600, some of the most common clones found to cause human infection, were also used. To further gauge the impact on the carbapenem compounds due to various resistance mechanisms in Pseudomonas, the following strains were included: P. aeruginosa 35151 (hyper-permeable strain), P. aeruginosa AmexAB-OprM (an efflux pump knockout), and P. aeruginosa PA 3 (a clinical isolate of reduced carbapenem susceptibility). Briefly, cryo-preserved bacterial cultures of clinical strains are streaked for isolation on appropriate agar medium, in this case Mueller Hinton II agar. Following incubation to allow formation of colonies, these plates are sealed with parafilm and stored refrigerated for up to two weeks. For preparation of assay inocula and to ensure low variability, at least 5 colonies are picked from the agar plates with an inoculating loop and aseptically transferred to a culture tube containing 3 mL of Mueller-Hinton Broth (supplemented with divalent cations to required levels based on Manufacturers' specification). The broth culture is grown for 3-5 hours at 37° C. with shaking at 200 rpm. Meanwhile, 2-fold serial dilutions of test compounds are conducted in a 96 well plate with a final volume of 75 μL per well at 2-fold the final desired concentration. After the dilution plates are set up the growing cultures are then diluted in a cuvette containing MH II broth and the optical density is measured at 600 nm. Inocula are diluted such that 75 μL of this culture in Mueller-Hinton Broth results in a starting bacterial concentration of 5×10^5 CFU/mL when added to the dilution plates. The plates are incubated 16-20 hours at 37° C. The MIC is read visually as the lowest concentration well with no bacterial growth.
(§3) Representative results are shown in Tables 3, 4, and 5 where A represents an MIC>32 μg/mL, B represents an MIC between 8 and 32 μg/mL inclusive, C represents an MIC between 1 and 4 μg/mL inclusive, and D represents an MIC of <1 μg/mL. NT=Not Tested.

[3] = system: E. coli ATCC 25922 (wild-type/QC strain); assay: broth microdilution MIC assay, E. coli ATCC 25922; conditions: Escherichia coli, ATCC25922, E. coli 25922, read-out: E. coli 25922 MIC
Procedure, shortened: as §1

[4] = system: P. aeruginosa ATCC 27853 (wild-type/QC strain); assay: broth microdilution MIC assay, P. aeruginosa ATCC 27853; conditions: Pseudomonas aeruginosa, ATCC27853, P. aeruginosa 27853, read-out: P. aeruginosa 27853 MIC
Procedure, shortened: as §1

[5] = system: S. aureus USA 300; assay: broth microdilution MIC assay, S. aureus USA 300; conditions: Staphylococcus aureus; Table 4; S. aureus USA300; read-out: S. aureus USA300 MIC
Procedure: as §2, §3

[6] = system: S. aureus USA600; assay: broth microdilution MIC assay, S. aureus USA 600; conditions: Staphylococcus aureus; Table 4; S. aureus USA600; read-out: S. aureus USA600 MIC
Procedure: as §2, §3

[7] = system: P. aeruginosa ΔmexAB-OprM (an efflux pump knockout); assay: broth microdilution MIC assay, P. aeruginosa ΔmexAB-OprM; conditions: Pseudomonas aeruginosa, 20 h, read-out: P. aeruginosa ΔmexAB-OprM MIC
Procedure: as §2, §3

[8] = system: P. aeruginosa 35151 (hyper-permeable strain); assay: broth microdilution MIC assay, P. aeruginosa 35151; conditions: Pseudomonas aeruginosa, read-out: P. aeruginosa 35151 MIC
Procedure: as §2, §3

[9] = ATCC 33591 / MRSA, Table 3, S. aureus 33591 (MRSA), read-out: S. aureus 33591 (MRSA) MIC
[10] = ATCC33591, Table 4, S. aureus 33591, read-out: S. aureus 33591 MIC

Row | MIC [1, 9] [µg/mL] | MIC [2] [µg/mL] | MIC ([3]; Table 3) [µg/mL] | MIC ([4]; Table 3) [µg/mL] | SMILES | MIC [1, 10] [µg/mL] | MIC [5] [µg/mL] | MIC [6] [µg/mL] | MIC ([3]; Table 4) [µg/mL] | MIC ([4]; Table 5) [µg/mL] | MIC [7] [µg/mL] | MIC [8] [µg/mL]
1 | 8 to 32 | < 1 | < 1 | 8 to 32 | C[C@@H](O)[C@H]1C(=O)N2C(C(=O)O)=C(S[C@@H]3CCN(Cc4cccnc4)C3)[C@H](C)[C@H]12 [Example 10, (4R,5S,6S)-6-((R)-1-hydroxyethyl)-4-methyl-7-oxo-3-(((R)-1-(pyridin-3-ylmethyl)pyrrolidin-3-yl)thio)-1-azabicyclo[3.2.0]hept-2-ene-2-carboxylic acid] | – | – | – | – | – | – | –
2 | 8 to 32 | < 1 | < 1 | 8 to 32 | C[C@@H](O)[C@H]1C(=O)N2C(C(=O)O)=C(S[C@@H]3CCN(CC4CCCNC4)C3)[C@H](C)[C@H]12 (stereo partly drawn) [Example 12, (4R,5S,6S)-6-((R)-1-hydroxyethyl)-4-methyl-7-oxo-3-(((3R)-1-(piperidin-3-ylmethyl)pyrrolidin-3-yl)thio)-1-azabicyclo[3.2.0]hept-2-ene-2-carboxylic acid] | – | – | – | – | – | – | –
3 | 8 to 32 | < 1 | < 1 | 8 to 32 | C[C@@H](O)[C@H]1C(=O)N2C(C(=O)O)=C(S[C@@H]3CCN(CC4CCCCN4)C3)[C@H](C)[C@H]12 (stereo partly drawn) [Example 13, (4R,5S,6S)-6-((R)-1-hydroxyethyl)-4-methyl-7-oxo-3-(((3R)-1-(piperidin-2-ylmethyl)pyrrolidin-3-yl)thio)-1-azabicyclo[3.2.0]hept-2-ene-2-carboxylic acid] | – | – | – | – | – | – | –
4 | 8 to 32 | < 1 | < 1 | 8 to 32 | C[C@@H](O)[C@H]1C(=O)N2C(C(=O)O)=C(S[C@@H]3CCN(C[C@@H]4CCCN4)C3)[C@H](C)[C@H]12 [Example 14, (4R,5S,6S)-6-((R)-1-hydroxyethyl)-4-methyl-7-oxo-3-(((R)-1-(((S)-pyrrolidin-2-yl)methyl)pyrrolidin-3-yl)thio)-1-azabicyclo[3.2.0]hept-2-ene-2-carboxylic acid] | – | – | – | – | – | – | –
5 | 8 to 32 | < 1 | < 1 | 8 to 32 | C[C@@H](O)[C@H]1C(=O)N2C(C(=O)O)=C(S[C@@H]3CCN(CC4(C)CCNCC4)C3)[C@H](C)[C@H]12 [Example 15, (4R,5S,6S)-6-((R)-1-hydroxyethyl)-4-methyl-3-(((R)-1-((4-methylpiperidin-4-yl)methyl)pyrrolidin-3-yl)thio)-7-oxo-1-azabicyclo[3.2.0]hept-2-ene-2-carboxylic acid] | – | – | – | – | – | – | –

The next lines start with the compound.

Row | SMILES | MIC [1, 9] [µg/mL] | MIC [2] [µg/mL] | MIC ([3]; Table 3) [µg/mL] | MIC ([4]; Table 3) [µg/mL] | MIC [1, 10] [µg/mL] | MIC [5] [µg/mL] | MIC [6] [µg/mL] | MIC ([3]; Table 4) [µg/mL] | MIC ([4]; Table 5) [µg/mL] | MIC [7] [µg/mL] | MIC [8] [µg/mL]
6 | C[C@@H](O)[C@H]1C(=O)N2C(C(=O)O)=C(S[C@@H]3CCN(C4CCNCC4)C3)[C@H](C)[C@H]12 [Example 1, (4R,5S,6S)-6-((R)-1-hydroxyethyl)-4-methyl-7-oxo-3-(((R)-1-(piperidin-4-yl)pyrrolidin-3-yl)thio)-1-azabicyclo[3.2.0]hept-2-ene-2-carboxylic acid] | 8 to 32 | < 1 | < 1 | 1 to 4 | – | – | – | – | – | – | –
7 | C[C@@H](O)[C@H]1C(=O)N2C(C(=O)O)=C(S[C@@H]3C[C@@H](CO)N(C4CCNCC4)C3)[C@H](C)[C@H]12 [Example 5, (4R,5S,6S)-6-((R)-1-hydroxyethyl)-3-(((3R,5S)-5-(hydroxymethyl)-1-(piperidin-4-yl)pyrrolidin-3-yl)thio)-4-methyl-7-oxo-1-azabicyclo[3.2.0]hept-2-ene-2-carboxylic acid] | 8 to 32 | < 1 | < 1 | 1 to 4 | – | – | – | – | – | – | –
8 | CCN[C@H]1CC[C@@H](CN2CC(SC3=C(C(=O)O)N4C(=O)[C@H]([C@@H](C)O)[C@H]4[C@H]3C)C2)CC1 [Example 70, (4R,5S,6S)-3-((1-(((1s,4S)-4-(ethylamino)cyclohexyl)methyl)azetidin-3-yl)thio)-6-((R)-1-hydroxyethyl)-4-methyl-7-oxo-1-azabicyclo[3.2.0]hept-2-ene-2-carboxylic acid] | – | – | – | – | 1 to 4 | 1 to 4 | 1 to 4 | < 1 | 1 to 4 | 1 to 4 | < 1
9 | C[C@@H](O)[C@H]1C(=O)N2C(C(=O)O)=C(SC3CN(CCC4CCN(C(=N)N)CC4)C3)[C@H](C)[C@H]12 [Example 71, (4R,5S,6S)-3-((1-(2-(1-carbamimidoylpiperidin-4-yl)ethyl)azetidin-3-yl)thio)-6-((R)-1-hydroxyethyl)-4-methyl-7-oxo-1-azabicyclo[3.2.0]hept-2-ene-2-carboxylic acid] | – | – | – | – | 1 to 4 | 1 to 4 | < 1 | < 1 | 1 to 4 | 1 to 4 | < 1
10 | C[C@@H](O)[C@H]1C(=O)N2C(C(=O)O)=C(SC3CN(C[C@H]4CC[C@H](N(C)C(=N)N)CC4)C3)[C@H](C)[C@H]12 [Example 72, (4R,5S,6S)-6-((R)-1-hydroxyethyl)-4-methyl-3-((1-(((1r,4R)-4-(1-methylguanidino)cyclohexyl)methyl)azetidin-3-yl)thio)-7-oxo-1-azabicyclo[3.2.0]hept-2-ene-2-carboxylic acid] | – | – | – | – | 1 to 4 | 1 to 4 | < 1 | < 1 | 8 to 32 | 1 to 4 | < 1
11 | C[C@@H](O)[C@H]1C(=O)N2C(C(=O)O)=C(SC3CN(C[C@H]4CC[C@@H](NC(=N)N)CC4)C3)[C@H](C)[C@H]12 [Example 73, (4R,5S,6S)-3-((1-(((1s,4S)-4-guanidinocyclohexyl)methyl)azetidin-3-yl)thio)-6-((R)-1-hydroxyethyl)-4-methyl-7-oxo-1-azabicyclo[3.2.0]hept-2-ene-2-carboxylic acid] | – | – | – | – | 1 to 4 | 1 to 4 | < 1 | < 1 | 1 to 4 | < 1 | < 1
12 | C[C@@H](O)[C@H]1C(=O)N2C(C(=O)O)=C(SC3CN(C[C@H]4CC[C@@H](N(C)C(=N)N)CC4)C3)[C@H](C)[C@H]12 [Example 74, (4R,5S,6S)-6-((R)-1-hydroxyethyl)-4-methyl-3-((1-(((1s,4S)-4-(1-methylguanidino)cyclohexyl)methyl)azetidin-3-yl)thio)-7-oxo-1-azabicyclo[3.2.0]hept-2-ene-2-carboxylic acid] | – | – | – | – | 1 to 4 | 1 to 4 | 1 to 4 | < 1 | 8 to 32 | 1 to 4 | < 1

— US12084445B2, “Broad-spectrum carbapenems” (VenatoRx Pharmaceuticals, Inc., priority 2018, dated 2024)
